Test results reported in US9546138B2, “Pyridone derivatives and uses thereof in the treatment of tuberculosis” (priority 2012, dated 2017).

Experiments:
[1] = system: Mtb H37Rv resistant mutant 529-5X-108-S1 (inhA D148G); format: cell-based, Mycobacterium tuberculosis
[2] = system: Mtb H37Rv resistant mutant 529-10X-108-B6; format: cell-based, Mycobacterium tuberculosis
[3] = system: Mtb H37Rv resistant mutant 529-5X-108-B2 (inhA S94A); format: cell-based, Mycobacterium tuberculosis
[4] = system: Mtb H37Rv resistant mutant 529-10X-107-B8 (inhA D148E); format: cell-based, Mycobacterium tuberculosis
[5] = system: Mtb H37Rv resistant mutant 529-5X-108-B4 (inhA G96V); format: cell-based, Mycobacterium tuberculosis
[6] = system: BCG-529-108-10X-2 (InhA M161V); format: cell-based, M bovis BCG
[7] = system: BCG-916-108-25X-B1 (InhA M161I); format: cell-based, M bovis BCG
[8] = system: Mtb H37Rv resistant mutant 529-5X-108-S3 (inhA D148G); format: cell-based, Mycobacterium tuberculosis

Row | Compound | Compound MIC50 [1] [µM] | Compound MIC50 [2] [µM] | Compound MIC50 [3] [µM] | Compound MIC50 [4] [µM] | Compound MIC50 [5] [µM] | Compound MIC50 [6] [µM] | Compound MIC50 [7] [µM] | Compound MIC50 [8] [µM]
1 | CCc1cc(C(N)=S)ccn1 [Ethionamide, reference compound] | 1.53 | 1.41 | 9.74 | 1.91 | 1.32 | >60 | >60 | –
2 | NNC(=O)c1ccncc1 [Isoniazid, isoniazid, reference compound] | 0.15 | 0.11 | 0.86 | 0.31 | 0.09 | 1.27 | 1.48 | 0.15
3 | O=c1[nH]c(CC2CCCCC2)cc(O)c1-c1ccccc1 [PD2, 6-(cyclohexylmethyl)-4-hydroxy-3-phenylpyridin-2(1H)-one] | 1.46 | >40 | 4.04 | >40 | 14.60 | – | – | 1.73
4 | CC1(C)CCC(Cc2cc(O)c(-c3ccccc3)c(=O)[nH]2)CC1 [PD10, 6-((4,4-dimethylcyclohexyl)methyl)-4-hydroxy-3-phenylpyridin-2(1H)-one] | 0.29 | >5.0 | 0.78 | >5.0 | >5.0 | 3.02 | 3.2 | 0.38
5 | CC(C)Cc1cc(O)c(-c2ccccc2)c(=O)[nH]1 [PD12, 4-hydroxy-6-isobutyl-3-phenylpyridin-2(1H)-one] | >40 | >40 | >40 | >40 | >40 | 27.88 | 21.52 | >40
